Patent US20220257503A1, “Surface Modified Gas Vesicles, Preparation and Applications thereof” (THE HONG KONG POLYTECHNIC UNIVERSITY, priority 2019, published 2022)

How the values were obtained:
[1] = system: SCC7 tumor-bearing nude mice; assay: Biodistribution by NIR fluorescence imaging in tumor-bearing mice; format: in vivo
Description: Animal experiments were conducted under protocols approved by Animal Care and Use Committee (CC/ACUCC) of Hong Kong Polytechnic University. Suspension of 4×10^6 SCC7 cells in PBS (80 μL) was injected to subcutaneous sites in athymic nude mice (seven weeks old, female, 20-24 g). When the tumor size (in the right leg region) reached average size of 120 mm^3, mice were randomly allocated into three groups, (a) injecting free ICG solution into the tail veins of mice; (b) injecting ICG labelled GVs solution into the tail veins of mice; and (c) injecting ICG labelled PH-GVs solution into the tail veins of mice. Fluorescent imagines were acquired at 0, 0.5, 1, 2, 4, 8, 12, 24 and 48 h after injection using IVIS Lumina II (Caliper Life Sciences, USA; Excitation Filter: 780 nm, Emission Filter: 800 nm).
At the time of highest accumulation after one-dose injection, SCC7 tumors and normal organs (hearts, livers, spleens, kidneys, lungs and muscles) were collected for acquisition of Fluorescent signal intensity.

[2] = Singlet oxygen generation in cell free system under ultrasound (SOSG); details: alone; PpIX 10 μM, GVs 2 nM
Description: SDT setup: 1 MHz planar ultrasound transducer with diameter of 5 cm (Olympus, Tokyo, Japan) was used for sonification in this study. Function generator (AFG 3251, Tektronix Company, Oregon, USA) and power amplifier (Model 500 A250 CAR; Souderton, Pa., USA) were used to generate ultrasonic pulses. Cells were exposed to ultrasound 10 cm away from transducer coupled by degassed deionized water at 25° C. Acoustic intensity and field were characterized by hydrophone (HGL-200; Onda, Sunnyvale, Calif., USA). The spatial peak temporal average intensity was measured to be 8 W/cm^2; the duty cycle was 20% with fixed pulse repetition frequency (PRF) of 1000 Hz. The overall sonification duration was 5 min. The temperature increase in cell-culture experiment solution was controlled within 2.5° C. After the ultrasound treatment, cells were cultured in fresh medium for 4 h and then prepared for different analyses.
Generation of singlet oxygen: SOSG (10 μM) was used to detect singlet oxygen generation. The solution was exposed to ultrasound and protected from light during the exposure time. The fluorescence intensity of SOSG was measured by microplate reader at an excitation wavelength of 488 nm and an emission wavelength of 530 nm.

MCF-7 cells [3] = assay: Cell apoptosis after PDT by Annexin V/PI flow cytometry; format: cell-based, Human; details: PDT (PpIX plus laser)
Description: (§1) Photodynamic therapy setup: Cells were exposed to laser with the power of 100 mW/cm^2 for 5 min. The light source with a wavelength of 396 nm that was generated by an optical fiber was collimated to an aperture and irradiated to the 35 mm cell culture dish. The position of the cell culture plate was manually controlled by a dual-axis electric linear platform. After the treatment, cells were cultured in fresh medium for 4 h and then prepared for different analyses.
Cell apoptosis test: Cells were seeded at a density of 5×10^5 cells in 6-cm dishes and incubated for 24 h. Alexa Fluor 488 Annexin V/Dead Cell Apoptosis Kit (Thermo Fisher Scientific) was used to measure cell apoptosis according to the manufacturer's instructions. Cells were collected and incubated with 5 μL of the annexin V conjugate and 1 μL of the PI working solution at room temperature for 15 min. The cells were analyzed by FACS Calibur flow cytometer and BD Accuri C6 Software (Becton-Dickinson, USA).

MCF-7 cells [4] = assay: PDT cytotoxicity by CCK-8 assay; format: cell-based, Human
Description: as §1
Cell culture: Human breast cancer cell line (MCF-7) was obtained from the Shanghai Cell Bank. […]
Cell viability test: In the pilot study, MCF-7 cells were divided randomly into eight groups: (1) control, (2) laser alone, (3) PpIX alone, (4) PpIX plus laser (PDT), (5) PpIX+GVs+laser (PDT+GVs), (6) PpIX+oxyGVs+laser (PDT+oxy-GVs), (7) GVs+laser, and (8) oxyGVs+laser. […] Cell viability at the different time points following PDT was determined using a Cell Counting Kit-8 (Sigma-Aldrich) according to the manufacturer's instructions. […] Cytotoxicity was determined by adding 10 μl CCK-8 reagent per well for 1 h at 37° C. in 5% CO2. The absorbance of the treated samples against a blank control was measured at 450 nm as the detection wavelength. The viability of treated cells was determined by comparing to the untreated ones in the control group.

Row | Structure (SMILES) | fluorescence at tumor sites (in vivo imaging) ([1]; after intravenous injection, PH-GVs at 8 h) | fluorescence signals in the normal organs (in vivo imaging) ([1]; early time points (0.5-2 h) for ICG/GVs, up to 8 h for PH-GVs) | SOSG fluorescence intensity before and after ultrasound treatment [2] | viable cells (MCF-7 cells [3]) [%] | effects on cell viability (MCF-7 cells [4]; PpIX alone, no laser) | cell viability (MCF-7 cells [4]; PpIX+laser (ALA-PDT), 4 h following PDT) [%]
1 | CC1(C)C(/C=C/C=C/C=C/C=C2\N(CCCCS(=O)(=O)[O-])c3ccc4ccccc4c3C2(C)C)=[N+](CCCCS(=O)(=O)[O-])c2ccc3ccccc3c21.[Na+] [ICG] | no strong fluorescence signal | considerable fluorescence signals | – | – | – | –
2 | C=CC1=C(C)c2cc3[nH]c(cc4[nH]c(cc5nc(cc1n2)C(C)=C5C=C)c(C)c4CCC(=O)O)c(CCC(=O)O)c3C [PpIX] | – | – | increased significantly | 74.7 | no effects | 75
